Measured values reported in patent US9745384B2, “Peptides useful for modulating histone demethylase function” (The Brigham and Women's Hospital, Inc., priority 2012, dated 2017).
Ends that are not written are not given here.

T1: His-LSD2 (Homo sapiens, UniProt Q8NB78)
T1 construct: typically 0.5 μg full-length His-LSD2; made in house; host or cells: Sf9 insect cells
T1 sequence (Q8NB78 1-822): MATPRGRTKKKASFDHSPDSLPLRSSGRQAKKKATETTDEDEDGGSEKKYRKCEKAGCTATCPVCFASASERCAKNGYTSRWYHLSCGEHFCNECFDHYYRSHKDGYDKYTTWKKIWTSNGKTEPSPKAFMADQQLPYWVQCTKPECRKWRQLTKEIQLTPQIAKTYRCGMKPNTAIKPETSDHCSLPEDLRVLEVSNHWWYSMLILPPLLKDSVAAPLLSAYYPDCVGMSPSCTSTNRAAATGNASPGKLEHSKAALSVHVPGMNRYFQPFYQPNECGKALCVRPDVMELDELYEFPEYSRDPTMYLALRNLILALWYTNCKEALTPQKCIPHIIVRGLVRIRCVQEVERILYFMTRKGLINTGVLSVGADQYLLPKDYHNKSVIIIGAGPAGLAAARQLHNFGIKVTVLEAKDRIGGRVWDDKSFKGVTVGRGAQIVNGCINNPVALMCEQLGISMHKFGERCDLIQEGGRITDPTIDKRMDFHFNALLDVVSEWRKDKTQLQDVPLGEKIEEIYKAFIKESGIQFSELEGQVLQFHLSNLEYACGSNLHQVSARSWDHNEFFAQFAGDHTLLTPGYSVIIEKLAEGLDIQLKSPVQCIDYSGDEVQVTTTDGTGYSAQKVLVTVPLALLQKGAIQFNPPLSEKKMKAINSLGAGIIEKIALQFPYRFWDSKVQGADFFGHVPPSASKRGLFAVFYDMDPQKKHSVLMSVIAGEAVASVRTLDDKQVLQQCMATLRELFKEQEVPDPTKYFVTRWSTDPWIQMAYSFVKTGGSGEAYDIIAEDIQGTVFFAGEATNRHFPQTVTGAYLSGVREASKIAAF

T2: LSD2 (residues 51-822) (Homo sapiens, UniProt Q8NB78)
T2 construct: Human LSD2 (residues 51-822) was subcloned into a pFastBacl derivative; His6 (cleaved yes); made in house; host or cells: Sf9 insect cells (baculovirus)
T2 sequence (Q8NB78 51-822): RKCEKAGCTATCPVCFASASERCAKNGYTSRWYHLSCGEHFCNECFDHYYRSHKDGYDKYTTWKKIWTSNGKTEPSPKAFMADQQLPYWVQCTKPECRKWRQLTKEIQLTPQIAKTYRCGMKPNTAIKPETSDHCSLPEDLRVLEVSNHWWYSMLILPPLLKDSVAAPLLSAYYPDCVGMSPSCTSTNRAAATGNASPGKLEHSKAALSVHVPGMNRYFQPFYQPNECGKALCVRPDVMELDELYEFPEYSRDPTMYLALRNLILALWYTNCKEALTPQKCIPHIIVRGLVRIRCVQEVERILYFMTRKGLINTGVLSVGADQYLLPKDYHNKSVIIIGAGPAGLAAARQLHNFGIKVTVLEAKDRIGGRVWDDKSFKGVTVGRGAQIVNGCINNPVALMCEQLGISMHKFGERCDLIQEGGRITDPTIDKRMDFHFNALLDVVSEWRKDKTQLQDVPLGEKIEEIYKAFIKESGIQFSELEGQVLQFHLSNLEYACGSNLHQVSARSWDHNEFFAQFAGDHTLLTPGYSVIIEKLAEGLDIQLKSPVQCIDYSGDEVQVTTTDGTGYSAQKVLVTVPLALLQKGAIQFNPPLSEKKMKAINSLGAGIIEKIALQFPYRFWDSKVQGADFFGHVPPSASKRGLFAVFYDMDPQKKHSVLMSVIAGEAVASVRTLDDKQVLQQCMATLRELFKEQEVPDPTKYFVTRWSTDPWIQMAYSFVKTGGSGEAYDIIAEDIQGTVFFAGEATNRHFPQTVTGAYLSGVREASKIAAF

T3: LSD2 (Homo sapiens, UniProt Q8NB78)
T3 construct: 0.15 μM or 1.2 μM purified LSD2 (residues 51-822); His6 (cleaved yes); made in house; host or cells: Sf9 insect cells (baculovirus)
T3 sequence (Q8NB78 51-822): T2 sequence (Q8NB78 51-822)

T4: LSD2 (Homo sapiens, UniProt Q8NB78)
T4 sequence (Q8NB78 1-822): T1 sequence (Q8NB78 1-822)

B1: linker region of NPAC: NPAC linker region, residues 152-252 or 152-268 (protein)
chain: SERGSKSPLKRAQEQSPRKRGRPPKDEKDLTIPESSTVKGMMAGPMAAFKWQPTASEPVKDADPHFHHFLLSQTEKPAVCYQAITKKLKICEEETGSTSIQ
modifications: left off: a dimerising Fc or GST
B2: full-length NPAC F217A protein: full-length NPAC protein with F217A mutation (protein, UniProt Q49A26 1-553, looked up, variant F217A)
chain: MAAVSLRLGDLVWGKLGRYPPWPGKIVNPPKDLKKPRGKKCFFVKFFGTEDHAWIKVEQLKPYHAHKEEMIKINKGKRFQQAVDAVEEFLRRAKGKDQTSSHNSSDDKNRRNSSEERSRPNSGDEKRKLSLSEGKVKKNMGEGKKRVSSGSSERGSKSPLKRAQEQSPRKRGRPPKDEKDLTIPESSTVKGMMAGPMAAFKWQPTASEPVKDADPHAHHFLLSQTEKPAVCYQAITKKLKICEEETGSTSIQAADSTAVNGSITPTDKKIGFLGLGLMGSGIVSNLLKMGHTVTVWNRTAEKCDLFIQEGARLGRTPAEVVSTCDITFACVSDPKAAKDLVLGPSGVLQGIRPGKCYVDMSTVDADTVTELAQVIVSRGGRFLEAPVSGNQQLSNDGMLVILAAGDRGLYEDCSSCFQAMGKTSFFLGEVGNAAKMMLIVNMVQGSFMATIAEGLTLAQVTGQSQQTLLDILNQGQLASIFLDQKCQNILQGNFKPDFYLKYIQKDLRLAIALGDAVNHPTPMAAAANEVYKRAKALDQSDNDMSAVYRAYIH
modifications: full-length
notes: full-length NPAC protein with F217A mutation

Key:
[1] = molecular target: T1, His-LSD2; experiment: Nucleosome demethylation assay (NPAC cofactor activity for LSD2, immunoblot); type: biochemical; details: for Cofactor activity: stimulation of LSD2 demethylation of nucleosomal H3K4me2: threshold dosage of His-LSD2, nucleosomes purified from HeLa
Method: For nucleosome demethylation assays, typically 0.5 μg full-length His-LSD2, 1 μg NPAC protein or peptides, and 2 μg nucleosomes purified from HeLa were used, and demethylation efficiency was analyzed by SDS-PAGE electrophoresis and immunoblot using methylation specific anti-histone H3 antibodies as previously described (Shi et al. 2004).

[2] = molecular target: T2, LSD2 (residues 51-822); experiment: ITC binding of wild-type and mutant NPAC peptides (residues 214-225) with LSD2; details: 15 °C; 3 mM NPAC peptide injected into 0.2 mM LSD2
Method: (§1) All proteins and peptides were prepared in 10 mM HEPES, pH 8.0, and 0.1 M NaCl. The data were fitted by software Origin 7.0.

[3] = molecular target: T5, LSD2 and NPAC.214-225.F217A (Homo sapiens, UniProt Q8NB78); experiment: ITC binding of H3K4M peptide with LSD2 in complex with F217A NPAC peptide; details: FIG. 6H
T5 construct: containing 0.029 mM LSD2 (residues 51-822) or LSD2-NPAC complex; His6 (cleaved yes); made in house; host or cells: LSD2: Sf9 insect cells; NPAC peptide: chemical synthesis
Method: as §1

[4] = molecular target: T3, LSD2; experiment: H3K4me2 peptide demethylation assay (MALDI-TOF); type: biochemical; details: H3K4me2 peptide residues 1-21
Method: FIGS. 12A-12F depict analysis of LSD2 demethylation activity and mutational analysis. […] Demethylation products were analyzed by MALDI-TOF mass spectrometry. 0.15 μM LSD2 can efficiently demethylate the longer H3K4me2 peptide (1-21), but has no detectable activity on the shorter histone peptide (1-15), demethylation of which requires high concentration (1.2 μM) of LSD2. […] It indicates the importance of histone residue 16-21 to LSD2 enzymatic activity and NPAC cofactor activity, supporting our model that NPAC assists enzyme-substrate interactions by creating a new binding site for H3 L20 in the LSD2-NPAC complex. FIG. 12C depicts LSD2 demethylation and NPAC cofactor activity on longer H3K4me2 peptide (1-44). 2 μg H3K4me2 peptide (1-44) were incubated with 0.8 μg GST-LSD2 (1-822) and 2 μg wild-type or F217A full-length GST-NPAC proteins in 100 μl demethylation buffer (50 mM Tris-HCl pH 8.1, 1 mM NAD^+, 0.1 Unit formaldehyde dehydrogenase) at 30° C. for 2 hours. LSD2 alone can efficiently demethylate di-methyl H3K4 of the long peptides, converting large majority of the substrate to H3K4me1. Wild-type NPAC protein can efficiently stimulate LSD2 demethylation, producing unmethylated H3K4. F217A mutation impairs NPAC cofactor activity as expected, showing little stimulatory effect if any. To compare demethylation efficiency, 1.2 μg bio-H3K4me2 peptide (H3 residue 1-21, equal molar ratio to 2 ug H3K4me2 1-44 peptide in above assays) was demethylated by LSD2 under identical conditions (bottom panel). […] The cofactor activity of wild-type NPAC was readily detected under the same conditions. […] Importantly, the demethylation of nucleosomal H3K4me2 was much more efficient in the presence of wild-type NPAC under same conditions (comparing lane 3 verse 4, and 8 verse 9). It is noted that no obvious cofactor effect of F217A peptide or linker regions was detected in nucleosome and peptide demethylation assays (FIG. 6E and data not shown). FIG. 12F depicts Coomassie staining of NPAC proteins used in histone demethylase assays. FIG. 12F discloses “His6” as SEQ ID NO: 75.
Histone peptides are purchased from Millipore, or custom synthesized. The purity of all peptides are >95% as determined by HPLC and mass spectrometry. In vitro histone demethylase activity assays were performed as described (Shi et al., 2004). Briefly, purified LSD2 and NPAC derived peptides or proteins were incubated with 50 μM H3K4me2 peptides (residues 1-21) in 50 mM Tris-HCl, pH 8.5, 50 mM KCl, 5 mM MgCl2, 5% glycerol at 37° C. for 30 min. The products were desalted through a C18 Ziptip (Millipore) and analyzed on a MALDI-TOF micro MX mass spectrometer (ABI 4700, Applied Biosystems). The laser intensity was kept constant for all of the samples. All MS data were processed using Data Explorer 4.5 (Applied Biosystems). […]

[5] = molecular target: T6, NPAC214-225.WT (Homo sapiens, UniProt Q49A26); experiment: ITC binding between H3K4M peptide and wild-type NPAC peptide alone; details: FIG. 6H
T6 construct: wild-type or mutant NPAC peptides (residues 214-225); made in house; host or cells: chemical synthesis

[6] = molecular target: LSD1 (Homo sapiens, UniProt O60341); experiment: LSD1-mediated nucleosome demethylation assay; type: biochemical; details: 2 μg LSD1 with 5 μg cofactor protein
Method: FIG. 7A depicts the determination of the threshold dosage of purified LSD2 required for nucleosomal H3K4 demethylation. 2 μg of nucleosomes purified from HeLa were incubated with various amount of His-LSD2 proteins for 2 hours at 30° C. The demethylation reactions were analyzed by immunoblotting using indicated antibodies. […] 2 μg LSD1 in combination with 5 μg purified NPAC or CoREST protein was used for histone demethylase assays. […] Transfected cells are marked by arrows; cells shown significant reduction of H3K4me1 are marked by dotted circles. […] In contrast, coexpression of LSD2 and NPAC induces obvious global decrease of H3K4me1. […] FIG. 7D depicts immunofluorescence analyses of H3K9me2 demethylation in cells coexpressing LSD2 and full-length NPAC.

[7] = molecular target: T4, LSD2; experiment: H3K4me2 peptide demethylation assay (MALDI-TOF); type: biochemical; design: 0.15 μM or 1.2 μM purified LSD2 (residues 51-822); His6 (cleaved yes); made in house; host or cells: Sf9 insect cells (baculovirus); details: longer H3K4me2 peptide residues 1-44
Method: FIGS. 12A-12F depict analysis of LSD2 demethylation activity and mutational analysis. […] Demethylation products were analyzed by MALDI-TOF mass spectrometry. 0.15 μM LSD2 can efficiently demethylate the longer H3K4me2 peptide (1-21), but has no detectable activity on the shorter histone peptide (1-15), demethylation of which requires high concentration (1.2 μM) of LSD2. […] It indicates the importance of histone residue 16-21 to LSD2 enzymatic activity and NPAC cofactor activity, supporting our model that NPAC assists enzyme-substrate interactions by creating a new binding site for H3 L20 in the LSD2-NPAC complex. FIG. 12C depicts LSD2 demethylation and NPAC cofactor activity on longer H3K4me2 peptide (1-44). […] The cofactor activity of wild-type NPAC was readily detected under the same conditions. […] It is noted that no obvious cofactor effect of F217A peptide or linker regions was detected in nucleosome and peptide demethylation assays (FIG. 6E and data not shown). […]
Histone peptides are purchased from Millipore, or custom synthesized. The purity of all peptides are >95% as determined by HPLC and mass spectrometry. […] The products were desalted through a C18 Ziptip (Millipore) and analyzed on a MALDI-TOF micro MX mass spectrometer (ABI 4700, Applied Biosystems). […]

Molecule | Cofactor activity: stimulation of LSD2 demethylation of nucleosomal H3K4me2 [1] | Binding ratio [2] | Kd [2] [nM] | Δ H [2] [kcal/mol] | Δ S [2] [cal/mol/deg] | Ability of NPAC peptide to stabilize the LSD2-H3K4M peptide interaction [3] | Cofactor activity: stimulation of LSD2 demethylation of H3K4me2 peptide [4] | Affinity of NPAC peptide to H3K4M peptide [5] | Stimulation of LSD1 nucleosome demethylation [6] | Cofactor activity on nucleosomes when more NPAC and LSD2 proteins were used ([1]; more NPAC and LSD2 than threshold assay (FIG. 12E)) | Cofactor activity: stimulation of LSD2 demethylation of H3K4me2 peptide [7]
DPHAHHFLLSQT [NPAC.214-225.M6] | abolishes cofactor activity | 1.10 ± 0.01 | 930 ± 70 | -8.182 ± 0.097 | −0.783 | significantly diminishes the ability of NPAC to stabilize the interaction between LSD2 and the H3K4M peptide | but not the F217A mutant, can stimulate LSD2-mediated demethylation of H3K4me2 peptides | – | – | – | –
DPHFHHFLLSQT [NPAC.214-225.WT] | sufficient to enhance LSD2 activity in nucleosome demethylation assays | 1.06 ± 0.01 | 920 ± 80 | -8.482 ± 0.121 | −1.82 | – | can stimulate LSD2-mediated demethylation of H3K4me2 peptides | no appreciable affinity to H3K4M peptide | – | – | –
B1 | – | – | – | – | – | – | strong cofactor activity for LSD2 | – | failed to stimulate LSD1 demethylation of nucleosomes | – | –
B2 | didn't detect cofactor activity | – | – | – | – | – | – | – | – | residual stimulatory activity | very weak or undetectable
